Data from the RepoRT retention time repository.

Assay: RP, Waters ACQUITY Premier BEH C18, 100 × 2.1 mm, 1.7 µm, 40 °C, 0.3 to 0.4 mL/min, estimated dead time 0.73 min; A: water + 0.1% formic acid; B: acetonitrile + 0.1% formic acid; gradient (min/%B) 0/0.5 0.1/0.5 10/80 10.1/99.5 12/0.5 12.1/0.5 14.5/0.5
Details: stereoisomer not certain

LC retention time [min] | Structure (SMILES)
4.4 | CC1OC(Oc2c(-c3cc(O)c(O)c(O)c3)oc3cc(O)cc(O)c3c2=O)C(O)C(O)C1O (centres undefined) [MYRICITRIN]
3.71 | Cn1cnc2c1c(=O)[nH]c(=O)n2C [THEOBROMINE]
5.57 | COc1ccc2[nH]cc(CCNC(C)=O)c2c1 [MELATONIN]
3.76 | O=c1c(-c2ccc(O)cc2)coc2c(C3OC(CO)C(O)C(O)C3O)c(O)ccc12 (centres undefined) [PUERARIN]
2.07 | Nc1c(O)cccc1C(=O)CC(N)C(=O)O (centres undefined) [HYDROXYKYNURENINE]
7.26 | COc1ccc(-c2cc(=O)c3c(OC)c(OC)c(OC)c(OC)c3o2)cc1 [TANGERETIN]
4.21 | CSCCC(NC(C)=O)C(=O)O (centres undefined) [N-ACETYLMETHIONINE]
5.3 | Oc1ccc(C=Cc2cc(O)cc(O)c2)cc1 [RESVERATROL]
3.67 | CC(C)C(=O)O [ISOBUTYRATE]
3.77 | CC(=O)N1CCCC1C(=O)O (centres undefined) [N-ACETYLPROLINE]
1.07 | OCC1OC(OC2C(CO)OC(OC3C(CO)OC(OC4C(CO)OC(O)C(O)C4O)C(O)C3O)C(O)C2O)C(O)C(O)C1O (centres undefined) [MALTOTETRAOSE]
1.91 | O=C(O)c1c[nH]c(=O)[nH]c1=O [URACIL 5-CARBOXYLATE]
5.53 | O=C(O)C(=O)c1ccccc1 [PHENYLGLYOXYLIC ACID]
6.65 | COc1ccc(-c2coc3cc(O)ccc3c2=O)cc1 [FORMONONETIN]
2.03 | C=CCC(=NOS(=O)(=O)O)SC1OC(CO)C(O)C(O)C1O (centres undefined) [SINIGRIN]
9.52 | CCCCCCCCC=CCCCCCCCC(=O)OCC(O)CO (centres undefined) [OLEOYL-GLYCEROL]
4.18 | O=C(O)c1cc(=O)c2ccccc2[nH]1 [KYNURENATE]
1.26 | CC(=O)NCC(=O)O [N-ACETYLGLYCINE]
8.08 | CC1(C(=O)O)CCC2(C)CCC3(C)C(=CC(=O)C4C5(C)CCC(O)C(C)(C)C5CCC43C)C2C1 (centres undefined) [GLYCYRRHETINIC ACID]
1.89 | O=C(O)C1=COC(OC2OC(CO)C(O)C(O)C2O)C2C(CO)=CCC12 (centres undefined) [GENIPOSIDIC ACID]
0.911 | OCC1OC(OC2OC(CO)C(O)C(O)C2O)C(O)C(O)C1O (centres undefined) [TREHALOSE]
6.64 | COc1cc2c(c(O)c1C(=O)C=Cc1ccc(O)cc1)C(O)CC(C)(C)O2 (centres undefined) [ISOXANTHOHUMOL B]

LC retention time [min] | Structure (SMILES)
3.65 | NC(CCC(=O)NC(Cc1ccccc1)C(=O)O)C(=O)O (centres undefined) [GAMMA-GLUTAMYLPHENYLALANINE]
5.79 | COC(=O)c1ccc(O)cc1 [METHYLPARABEN]
2.44 | NC(Cc1ccc(O)cc1)C(=O)O (centres undefined) [TYROSINE]
0.959 | O=C(O)CP(=O)(O)O [PHOSPHONOACETATE]
0.887 | NCC(O)c1ccc(O)c(O)c1 (centres undefined) [NORADRENALINE]
7.55 | CC(CCC(=O)NCCS(=O)(=O)O)C1CCC2C3CCC4CC(O)CCC4(C)C3CCC12C (centres undefined) [LITHOCHOLYLTAURINE]
0.897 | CCNC(=O)CC[C@H](N)C(=O)O [L-THEANINE]
1.12 | Cn1cc(C(N)=O)ccc1=O [N1-METHYL-2-PYRIDONE-5-CARBOXAMIDE]
4.58 | COc1cc(C=CC(=O)O)cc(OC)c1O [SINAPIC ACID]
4.06 | CSCC[C@H](NC=O)C(=O)O [N-FORMYL-L-METHIONINE]
4.77 | O=C(O)C=Cc1cccc(O)c1 [M-COUMARIC ACID]
3.56 | Cc1cn(C2CC(O)C(CO)O2)c(=O)[nH]c1=O (centres undefined) [THYMIDINE]
4.52 | O=C(O)c1ccccc1C(=O)O [PHTHALIC ACID]
5.71 | CC=CC=CC(=O)O [SORBATE]
6.22 | O=C(O)CCc1c[nH]c2ccccc12 [INDOLE-3-PROPIONIC ACID]
6.26 | COc1ccc(C2CC(=O)c3c(O)cc(O)cc3O2)cc1O (centres undefined) [HESPERETIN]
1.48 | CC(=O)OC(CC(=O)O)C[N+](C)(C)C (centres undefined) [O-ACETYLCARNITINE]
7.14 | CCCCCCCCCCCC(=O)OC(CC(=O)O)C[N+](C)(C)C.[Cl-] (centres undefined) [ISTD_LAUROYL-CARNITINE-D3]
0.958 | NC(CCSSCCC(N)C(=O)O)C(=O)O (centres undefined) [HOMOCYSTINE]
7.41 | CCNC(=O)C1CC(C)CCC1C(C)C (centres undefined) [N-ETHYL-5-METHYL-2-(1-METHYLETHYL)-CYCLOHEXANECARBOXAMIDE]
4.39 | O=C(O)C[C@H](NC(=O)Cc1c[nH]c2ccccc12)C(=O)O [L-N-(1H-INDOL-3-YLACETYL)ASPARTIC ACID]
2.2 | O=C(O)CCCC(=O)C(=O)O [OXOADIPATE]

The remaining lines, values behind:

Structure (SMILES) | LC retention time [min]
CC(CCC(=O)O)C1CCC2C3C(=O)CC4CC(O)CCC4(C)C3CC(O)C12C (centres undefined) [7-KETODEOXYCHOLATE] | 6.88
O=C(C=Cc1ccc(O)c(O)c1)OC1CC(O)(C(=O)O)CC(O)C1OC(=O)C=Cc1ccc(O)c(O)c1 (centres undefined) [4,5-DI-O-CAFFEOYLQUINIC ACID] | 4.78
CSCCC(=O)C(=O)O [2-OXO-4-METHYLTHIOBUTANOIC ACID] | 3.7
CCC(C(=O)O)C(=O)O [ETHYLMALONATE] | 3.85
Nc1ccn(C2OC(CO)C(O)C2O)c(=O)n1 (centres undefined) [CYTIDINE] | 1.41
CC(C(=O)O)c1ccc(O)cc1 (centres undefined) [4-HYDROXYPHENYL-2-PROPIONIC ACID] | 5.12
O=C(O)C(O)CCO (centres undefined) [2,4-DIHYDROXYBUTANOIC ACID] | 1.07
Nc1ncnc2c1ncn2C1OC(CO)C2OP(=O)(O)OC21 (centres undefined) [ADENOSINE 2',3'-CYCLIC PHOSPHATE] | 2.8
COc1ccc(-c2oc3cc(OC)c(OC)c(O)c3c(=O)c2OC)cc1O [CASTICIN] | 6.98
Cc1nccc2c1[nH]c1ccccc12 [HARMAN] | 4.24
CCCCCCCCCCCC(O)CC(=O)O (centres undefined) [3-HYDROXYTETRADECANOIC ACID] | 8.11
Cn1c(=O)[nH]c2[nH]c(=O)n(C)c2c1=O [1,7-DIMETHYLURIC ACID] | 2.39
CCC(CO)C(=O)O (centres undefined) [2-ETHYLHYDRACRYLIC ACID] | 3.81
O=c1cc(-c2ccccc2)oc2ccccc12 [FLAVONE] | 7.23
Cc1ccc(O)c(O)c1 [4-METHYLCATECHOL] | 4.34
Nc1ncnc2c1ncn2C1OC(COP(=O)(O)OS(=O)(=O)O)C(O)C1O (centres undefined) [ADENOSINE PHOSPHOSULFATE] | 1.22
Nc1ccccc1S(=O)(=O)O [ANILINE-2-SULFONATE] | 2.54
O=C(O)c1c(O)cc(O)cc1O [2,4,6-TRIHYDROXYBENZOIC ACID] | 3.9
O=C(OCC1=CC(O)C2C=COC(OC3OC(CO)C(O)C(O)C3O)C12)c1ccc(O)cc1 (centres undefined) [AGNUSIDE] | 4.2
O=C(O)CCCCc1ccccc1 [5-PHENYLVALERIC ACID] | 7.21
NCCOP(=O)(O)OP(=O)(O)OCC1OC(n2ccc(N)nc2=O)C(O)C1O (centres undefined) [CDP-ETHANOLAMINE] | 0.882
NCCc1cc(O)c(O)cc1O [6-HYDROXYDOPAMINE] | 1.31
Cn1c(=O)[nH]c(=O)c2[nH]cnc21 [3-METHYLXANTHINE] | 1.3

Structure (SMILES) | LC retention time [min]
NCCc1c[nH]c2ccccc12 [TRYPTAMINE] | 4.34
CS(=O)CCCCN=C=S (centres undefined) [SULFORAPHANE] | 4.72
COc1ccc2[nH]cc(CCN)c2c1 [5-METHOXYTRYPTAMINE] | 3.73
Nc1ccn(C2OC(COP(=O)(O)O)C(O)C2O)c(=O)n1 (centres undefined) [CYTIDINE MONOPHOSPHATE] | 0.941
Nc1ncnc2c1ncn2C1OC(CO)C(O)C1O (centres undefined) [ADENOSINE] | 3.28
NC(CCCC(=O)O)C(=O)O (centres undefined) [AMINOADIPATE] | 0.943
CCCCCCC(N)C(=O)O (racemic) [DL-2-AMINOOCTANOIC ACID] | 4.04
Cn1cnc2[nH]c(=O)[nH]c(=O)c21 [7-METHYLXANTHINE] | 1.2
COc1cccc(OC)c1C(=O)O [2,6-DIMETHOXYBENZOIC ACID] | 4.71
O=C(O)CNC(=O)c1cccc(O)c1 [3-HYDROXYHIPPURIC ACID] | 3.03
CC1OC(OC2C(O)C(OCCc3ccc(O)c(O)c3)OC(CO)C2OC(=O)C=Cc2ccc(O)c(O)c2)C(O)C(O)C1O (centres undefined) [ACTEOSIDE] | 4.38
CC12CCC(=O)C=C1CCC1C2CCC2(C)C1CCC2(O)C(=O)CO (centres undefined) [CORTEXOLONE] | 6.74
O=C(O)C1OC(Oc2cc3oc(-c4ccccc4)cc(=O)c3c(O)c2O)C(O)C(O)C1O (centres undefined) [BAICALIN] | 5.17
CC(=O)OCC(=O)C1(O)CCC2C3CCC4=CC(=O)CCC4(C)C3C(O)CC21C (centres undefined) [CORTISOL 21-ACETATE] | 6.92
COc1cc(CC2COC(=O)C2Cc2ccc(O)c(OC)c2)ccc1O (single isomer, unassigned; (-)) [(-)-MATAIRESINOL] | 6.12
CCCCCCCCCCCCCCC(O)C(=O)O (centres undefined) [2-HYDROXYHEXADECANOIC ACID] | 8.98
O=c1ccc2cc(OC3OC(CO)C(O)C(O)C3O)c(O)cc2o1 (centres undefined) [AESCULIN] | 3.14
CC(C(=O)O)C(O)(CC(=O)O)C(=O)O (centres undefined) [2-METHYLCITRATE] | 3.44
CC(=O)NCCCC(=O)O [4-ACETAMIDOBUTANOATE] | 3.27
O=C(O)CCCCC1CCSS1 [(R)-LIPOIC ACID] | 6.93
COc1ccc(-c2cc(=O)c3c(O)cc(O)cc3o2)cc1O [DIOSMETIN] | 6.12
O=Cc1cccc(O)c1 [3-HYDROXYBENZALDEHYDE] | 5.11
